Results: US12319655B2, “RAF kinase inhibitors and methods of use thereof” (Deciphera Pharmaceuticals, LLC, priority 2021, dated 2025)

How the values were obtained:
[1] = target: A-Raf kinase (SEQ. ID No: 1) (Homo sapiens (Human), UniProt P10398, Y301D/Y302D); experiment: Biochemical Assay for A-Raf (1); conditions: Table J, assay version (1); read-out: ARAF (1) IC50
Summary of the method: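 IC50 values were derived by four-parameter sigmoidal fitting of percent inhibition, calculated from reaction rates over the 4–5 h window. Absorbance at 340 nm was tracked for 6 h at 30 °C via coupled PK/LDH NADH depletion. Conditions: 1 mM ATP, 30.1 nM MEK substrate, 5.55 nM A-Raf (Y301D/Y302D), Tris pH 7.5, 1% DMSO.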

[2] = target: B-Raf (V600E) (SEQ. ID NO: 4) kinase (Homo sapiens (Human), UniProt P15056, V600E); experiment: Biochemical Assay for B-Raf (V600E) (1); conditions: Table J, BRAF V600E, assay version (1); read-out: BRAF VE (1) IC50
B-Raf (V600E) (SEQ. ID NO: 4) kinase, sequence (P15056 416-766 V600E): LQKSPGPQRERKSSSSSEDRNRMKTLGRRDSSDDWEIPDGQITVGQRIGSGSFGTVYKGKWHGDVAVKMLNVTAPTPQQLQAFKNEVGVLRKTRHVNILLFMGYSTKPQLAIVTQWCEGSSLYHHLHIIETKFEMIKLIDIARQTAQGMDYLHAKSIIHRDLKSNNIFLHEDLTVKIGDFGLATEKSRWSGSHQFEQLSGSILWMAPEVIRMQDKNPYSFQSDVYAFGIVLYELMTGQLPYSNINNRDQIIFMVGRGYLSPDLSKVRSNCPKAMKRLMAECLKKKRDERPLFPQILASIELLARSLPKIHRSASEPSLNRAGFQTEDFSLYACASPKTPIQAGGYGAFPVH
Summary of the method: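 Serially diluted compounds tested against 0.03 nM enzyme with 30.1 nM MEK substrate and 1 mM ATP (Tris pH 7.5, 15 mM MgCl2), ATP use coupled to NADH loss via PK/LDH. A340 monitored continuously 6 h, 30 °C; IC50 fitted (four-parameter) from the 3–4 h rate versus no-compound and known-inhibitor controls.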

[3] = tested on: Miapaca-2 cells; experiment: MiaPaca-2 Cell Proliferation Assay (1); type: cell-based; conditions: Homo sapiens, MIA PaCa-2, single agent, read-out: MiaPaca2 (1) IC50
Experimental: MiaPaca-2 Cell Proliferation Assay (1)
Miapaca-2 cells (catalog #CRL-1420) are obtained from the American Type Culture Collect (ATTC, Manassas, VA). Briefly, cells were grown in DMEM supplemented with 10% characterized fetal bovine serum (Invitrogen, Carlsbad, CA), 2.5% New Zealand sourced horse serum and 1% Penicillin/Streptomycin/L-Glutamine at 37° C., 5% CO2, and 95% humidity. Cells are expanded until reaching 70-95% confluency at which point they are sub-cultured or harvested for assay use. A serial dilution of test compound is dispensed into a 96-well black clear bottom plate in triplicate. Three thousand cells are added per well in 200 μL complete growth medium in the 96-well plate. Plates are incubated for 67-72 h at 37° C., 5% CO2, and 95% humidity. At the end of the incubation, 40 μL of a 440 μM solution of resazurin (Sigma, St. Louis, MO) in PBS is added to each well of the plate and plates are incubated for an additional 5-6 h at 37° C., 5% CO2, and 95% humidity. Plates are read on a Synergy2 or equivalent reader (Biotek, Winooski VT) using an excitation of 540 nm and an emission of 600 nm. Data is analyzed using Prism software (GraphPad, San Diego, CA) to calculate IC50 values.

[4] = tested on: Miapaca-2 cells; experiment: MiaPaca-2 Combination Cell proliferation Assay (1) with cobimetinib; type: cell-based; conditions: MiaPaca-2 cell proliferation, read-out: MiaPaca-2 Combo (1) IC50
Experimental: MiaPaca-2 Combination Cell proliferation Assay (1)
Miapaca-2 cells (catalog #CRL-1420) are obtained from the American Type Culture Collect (ATCC, Manassas, VA). Briefly, cells were grown in DMEM supplemented with 10% characterized fetal bovine serum (Invitrogen, Carlsbad, CA), 2.5% New Zealand sourced horse serum and 1% Penicillin/Streptomycin/L-Glutamine at 37° C., 5% CO2, and 95% humidity. Cells are expanded until reaching 70-95% confluency at which point they are subcultured or harvested for assay use. A serial dilution of test compound was dispensed into multiple 96-well black clear bottom plates in triplicate. A serial dilution of complete growth medium containing cobimetinib was prepared at twice the final concentration and 100 μL was dispensed across the test compound titration in triplicate. Three thousand cells are added per well in 100 μL complete growth medium in each 96-well plate. Plates are incubated for 67-72 hours at 37° C., 5% CO2, and 95% humidity. At the end of the incubation, 40 μL of a 440 μM solution of resazurin (Sigma, St. Louis, MO) in PBS is added to each well of the plate and plates are incubated for an additional 5-7 hours at 37° C., 5% CO2, and 95% humidity. Plates are read on a Synergy2 or equivalent reader (Biotek, Winooski VT) using an excitation of 540 nm and an emission of 600 nm. Drug synergy was assessed via BLISS analysis in the Combenefit software (Cancer Research UK Cambridge Institute, Cambridge, UK). Data is analyzed using Prism software (Graphpad, San Diego, CA) to calculate IC50 values. Shifts in test compound IC50 values are reported from top-constrained combination therapy curves.

A-Raf kinase (SEQ. ID No: 1), sequence (P10398 other isoform, or with tags, fused parts or gaps Y301D (already in the parent)/Y302D (already in the parent)): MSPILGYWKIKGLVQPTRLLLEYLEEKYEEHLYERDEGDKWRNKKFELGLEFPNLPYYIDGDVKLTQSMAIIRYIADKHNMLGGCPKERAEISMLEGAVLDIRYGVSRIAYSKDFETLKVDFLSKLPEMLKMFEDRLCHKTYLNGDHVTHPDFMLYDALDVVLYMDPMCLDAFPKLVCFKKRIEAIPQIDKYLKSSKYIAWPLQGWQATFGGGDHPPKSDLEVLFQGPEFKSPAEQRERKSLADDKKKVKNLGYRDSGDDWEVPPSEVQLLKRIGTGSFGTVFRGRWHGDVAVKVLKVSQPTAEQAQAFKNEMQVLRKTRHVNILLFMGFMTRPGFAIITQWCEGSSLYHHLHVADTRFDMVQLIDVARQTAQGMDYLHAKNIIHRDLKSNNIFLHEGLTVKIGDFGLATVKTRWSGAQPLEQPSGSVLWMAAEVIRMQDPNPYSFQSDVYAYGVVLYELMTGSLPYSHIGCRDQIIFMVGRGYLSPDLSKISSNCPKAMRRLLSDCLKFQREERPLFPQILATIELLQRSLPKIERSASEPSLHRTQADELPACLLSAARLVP

Row | SMILES | IC50 [1] | IC50 [2] | IC50 [3] | IC50 [4]
1 | CC(=O)Nc1cc(-c2cc(-c3cc(NC(=O)c4ccnc(C(F)(F)F)c4)c(F)cc3C)cc(C)n2)ccn1 [Example 4] | 1000 to 10000 nM | ≤ 100 nM | 1000 to 10000 nM | ≤ 100 nM
2 | Cc1cc(F)c(NC(=O)c2ccnc(C(F)(F)F)c2)cc1-c1ccnc(-c2ccnc(NC(=O)CN(C)C)c2)c1 [Example 7] | 1000 to 10000 nM | ≤ 100 nM | 1000 to 10000 nM | 100 to 500 nM
3 | CC(=O)Nc1cc(-c2ccnc(-c3cc(NC(=O)c4ccnc(C(C)(C)C#N)c4)ccc3C)n2)ccn1 [Example 103] | 500 to 1000 nM | ≤ 100 nM | 1000 to 10000 nM | ≤ 100 nM
4 | Cc1cc(F)c(NC(=O)c2ccnc(C(C)(C)C#N)c2)cc1-c1ccnc(-c2ccnc(NC=O)c2)c1 [Example 104] | 1000 to 10000 nM | ≤ 100 nM | 1000 to 10000 nM | ≤ 100 nM
5 | Cc1ccc(NC(=O)c2ccnc(C(C)(C)C#N)c2)cc1-c1cncc(-c2ccnc(NC(=O)C3CC3)c2)n1 [Example 112] | 500 to 1000 nM | ≤ 100 nM | 1000 to 10000 nM | ≤ 100 nM
6 | Cc1ccc(NC(=O)c2ccnc(C(F)F)c2)cc1-c1cncc(-c2ccnc(NC(=O)C3CC3)c2)n1 [Example 117] | 1000 to 10000 nM | ≤ 100 nM | 1000 to 10000 nM | ≤ 100 nM
7 | CC(=O)Nc1cc(-c2nccc(-c3cc(NC(=O)c4ccnc(C(C)(C)C#N)c4)ccc3C)n2)ccn1 [Example 118] | 500 to 1000 nM | ≤ 100 nM | 1000 to 10000 nM | ≤ 100 nM
8 | CC(=O)Nc1cc(-c2cncc(-c3cc(NC(=O)c4cc(C(F)(F)F)ccn4)ccc3C)n2)ccn1 [Example 124] | 1000 to 10000 nM | ≤ 100 nM | 1000 to 10000 nM | ≤ 100 nM
9 | CNC(=O)c1cc(-c2cc(-c3cc(NC(=O)c4cccc(C(C)(C)C#N)c4)ccc3C)ccn2)ccn1 [Example 127] | 1000 to 10000 nM | ≤ 100 nM | 1000 to 10000 nM | ≤ 100 nM
10 | Cc1ccc(NC(=O)c2ccnc(C(C)(C)C#N)c2)cc1-c1cccc(-c2ccnc3[nH]ncc23)c1 [Example 134] | 1000 to 10000 nM | ≤ 100 nM | 1000 to 10000 nM | 100 to 500 nM
11 | CNC(=O)c1cc(-c2cncc(-c3cc(NC(=O)c4ccnc(C5(C#N)CC5)c4)ccc3C)n2)ccn1 [Example 138] | 1000 to 10000 nM | ≤ 100 nM | 1000 to 10000 nM | 100 to 500 nM
12 | CC(=O)Nc1cc(-c2nccc(-c3cc(NC(=O)c4ccnc(C5CC5)c4)ccc3C)n2)ccn1 [Example 152] | 500 to 1000 nM | ≤ 100 nM | 1000 to 10000 nM | –
13 | CC(=O)Nc1cc(-c2nccc(-c3cc(NC(=O)c4cc(C(F)(F)F)ccn4)ccc3C)n2)ccn1 [Example 153] | 100 to 500 nM | ≤ 100 nM | 1000 to 10000 nM | –
14 | Cc1ccc(NC(=O)c2ccnc(C(C)(C)C#N)c2)cc1-c1cncc(-c2ccnc(NC(=O)CC#N)c2)n1 [Example 154] | 100 to 500 nM | ≤ 100 nM | 1000 to 10000 nM | –
15 | COCCNc1cc(-c2cccc(-c3cc(NC(=O)c4ccnc(C(F)(F)F)c4)ccc3C)c2)ncn1 [Example 156] | 1000 to 10000 nM | ≤ 100 nM | 1000 to 10000 nM | –
16 | CC(=O)Nc1cc(-c2nccc(-c3cc(NC(=O)c4ccnc(C(F)(F)F)c4)cnc3C)n2)ccn1 [Example 157] | 1000 to 10000 nM | ≤ 100 nM | 1000 to 10000 nM | –
17 | CNC(=O)c1cc(-c2cc(-c3cc(NC(=O)c4ccnc(C(C)(C)C#N)c4)cnc3C)ccn2)ccn1 [Example 158] | 1000 to 10000 nM | ≤ 100 nM | 1000 to 10000 nM | ≤ 100 nM
18 | CNc1cc(-c2cccc(-c3cc(NC(=O)c4ccnc(C(C)(C)C#N)c4)ccc3C)c2)ncn1 [Example 160] | 1000 to 10000 nM | ≤ 100 nM | 1000 to 10000 nM | 100 to 500 nM

Row | SMILES | IC50 [1] | IC50 [2] | IC50 [3] | IC50 [4]
19 | Cc1ccc(NC(=O)c2ccnc(C(C)(C)C#N)c2)cc1-c1cncc(-c2ccnc(NC=O)c2)n1 [Example 161] | 500 to 1000 nM | ≤ 100 nM | 1000 to 10000 nM | –
20 | Cc1ccc(NC(=O)c2ccnc(C(C)(C)C#N)c2)cc1-c1ccnc(-c2ccnc(C(=O)NC3CC3)c2)c1 [Example 162] | 1000 to 10000 nM | ≤ 100 nM | 1000 to 10000 nM | –
21 | CNC(=O)c1cc(-c2nccc(-c3cc(NC(=O)c4ccnc(C(C)(C)C#N)c4)c(F)cc3C)n2)ccn1 [Example 166] | 1000 to 10000 nM | ≤ 100 nM | 1000 to 10000 nM | –
22 | CC(=O)Nc1cc(-c2nccc(-c3cc(NC(=O)c4cnnc(C5CC5)c4)ccc3C)n2)ccn1 [Example 168] | 1000 to 10000 nM | ≤ 100 nM | 1000 to 10000 nM | –
23 | Cc1ccc(NC(=O)c2ccnc(C(C)(C)C#N)c2)cc1-c1nccc(-c2ccnc(NC(=O)C3CC3)c2)n1 [Example 169] | 100 to 500 nM | ≤ 100 nM | 1000 to 10000 nM | –
24 | CNC(=O)c1cc(-c2cccc(-c3cc(NC(=O)c4ccnc(C(C)(C)C#N)c4)ccc3C)c2)ncn1 [Example 171] | 1000 to 10000 nM | ≤ 100 nM | 1000 to 10000 nM | –
25 | Cc1ncc(NC(=O)c2ccnc(C(C)(C)C#N)c2)cc1-c1cccc(-c2ccnc(NC(=O)C3CC3)c2)n1 [Example 172] | 1000 to 10000 nM | ≤ 100 nM | 1000 to 10000 nM | ≤ 100 nM
26 | CNc1cc(-c2cncc(-c3cc(NC(=O)c4ccnc(C(C)(C)C#N)c4)ccc3C)n2)ccn1 [Example 173] | 1000 to 10000 nM | ≤ 100 nM | 1000 to 10000 nM | –
27 | Cc1ccc(NC(=O)c2cccc(C(C)(C)C#N)c2)cc1-c1cccc(-c2cc(NC(=O)C3CC3)ncn2)c1 [Example 174] | 1000 to 10000 nM | ≤ 100 nM | 1000 to 10000 nM | –
28 | CNC(=O)c1cc(-c2nccc(-c3cc(NC(=O)c4ccnc(C5(C#N)CC5)c4)ccc3C)n2)ccn1 [Example 175] | 1000 to 10000 nM | ≤ 100 nM | 1000 to 10000 nM | ≤ 100 nM
29 | CNC(=O)c1cc(-c2cc(-c3cc(NC(=O)c4ccnc(C(C)(C)C#N)c4)c(F)cc3C)ccn2)ccn1 [Example 176] | 1000 to 10000 nM | ≤ 100 nM | 1000 to 10000 nM | –
30 | CNC(=O)c1cc(-c2ccnc(-c3cc(NC(=O)c4ccnc(C(C)(C)C#N)c4)ccc3C)n2)ccn1 [Example 177] | 1000 to 10000 nM | ≤ 100 nM | 1000 to 10000 nM | –
31 | CNC(=O)c1cc(-c2cc(-c3cc(NC(=O)c4ccnc(C5(C#N)CC5)c4)ccc3C)ncn2)ccn1 [Example 178] | 1000 to 10000 nM | ≤ 100 nM | 1000 to 10000 nM | –
32 | Cc1cc(F)c(NC(=O)c2ccnc(C(C)(C)C#N)c2)cc1-c1ccnc(-c2ccnc(NC(=O)C3CC3)c2)n1 [Example 179] | 500 to 1000 nM | ≤ 100 nM | 1000 to 10000 nM | –
33 | Cc1ccc(NC(=O)c2ccnc(C3(C#N)CC3)c2)cc1-c1ccnc(-c2ccnc(NC(=O)C3CC3)c2)n1 [Example 180] | 100 to 500 nM | ≤ 100 nM | 1000 to 10000 nM | –
34 | Cc1ncc(NC(=O)c2ccnc(C(C)(C)C#N)c2)cc1-c1cccc(-c2cc(NC(=O)C3CC3)ncn2)c1 [Example 181] | 1000 to 10000 nM | ≤ 100 nM | 1000 to 10000 nM | ≤ 100 nM
35 | CCC(=O)Nc1cc(-c2cccc(-c3cc(NC(=O)c4ccnc(C(C)(C)C#N)c4)cnc3C)n2)ccn1 [Example 182] | 1000 to 10000 nM | ≤ 100 nM | 1000 to 10000 nM | –
